In PubChem BioAssay (NCI):
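The compound was tested at five concentrations on cells cultured in 96-well plates, with a 48-hour exposure period. Abbreviation: GI50, concentration required for 50% inhibition of growth. Definition used: TGI = concentration required for complete inhibition of growth.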

Key:
Assay in all cases: inhibition of tumour cell growth, NCI panel, 48 h
IGROV1 ovarian = test system: IGROV1 ovarian
SK-MEL-28 melanoma = test system: SK-MEL-28 melanoma
SK-MEL-5 melanoma = test system: SK-MEL-5 melanoma
CAKI-1 renal = test system: CAKI-1 renal
HCT-15 colon = test system: HCT-15 colon
HT29 colon = test system: HT29 colon
OVCAR-8 ovarian = test system: OVCAR-8 ovarian
SNB-75 CNS = test system: SNB-75 CNS
OVCAR-4 ovarian = test system: OVCAR-4 ovarian
HOP-92 NSCLC = test system: HOP-92 NSCLC

SMILES	TGI (IGROV1 ovarian) [µM]	TGI (SK-MEL-28 melanoma) [µM]	TGI (SK-MEL-5 melanoma) [µM]	TGI (CAKI-1 renal) [µM]	TGI (HCT-15 colon) [µM]	TGI (HT29 colon) [µM]	TGI (OVCAR-8 ovarian) [µM]	TGI (SNB-75 CNS) [µM]	TGI (OVCAR-4 ovarian) [µM]	TGI (HOP-92 NSCLC) [µM]	GI50 (IGROV1 ovarian) [µM]	GI50 (SK-MEL-28 melanoma) [µM]	GI50 (SK-MEL-5 melanoma) [µM]	GI50 (CAKI-1 renal) [µM]	GI50 (HCT-15 colon) [µM]	GI50 (HT29 colon) [µM]	GI50 (OVCAR-8 ovarian) [µM]	GI50 (SNB-75 CNS) [µM]	GI50 (OVCAR-4 ovarian) [µM]	GI50 (HOP-92 NSCLC) [µM]
CN1C(c2ccccc2)CS(=O)(=O)CS1(=O)=O (stereo not given)	> 100	> 100	> 100	> 100	> 100	> 100	> 100	> 100	> 100											
COC(=O)CCC(=O)Nc1cc(Cl)ccc1Cl	> 100	> 100	> 100	> 100	> 100	> 100	> 100		> 100	> 100										
CC1=C(C(=O)Nc2cc(=O)n(C)c(=O)n2C)C(c2ccc([N+](=O)[O-])cc2)C(C(=O)Nc2cc(=O)n(C)c(=O)n2C)=C(C)N1	> 100	> 100			> 100	> 100	> 100	> 100	> 100	85.7										
Cc1[nH]c2ccccc2c1-c1cc(-c2cc(-c3c(C)[nH]c4ccccc34)nc(N)n2)nc(N)n1	> 100	> 100	> 100	> 100	> 100	> 100	> 100		> 100	> 100										
CN(C)c1ncc(-c2ccc(C(F)(F)F)cc2)c(NC2CCCCCC2)n1	> 100	60.3	28.3	> 100	48.8	32.9	> 100	93.8	56.6		32.5	19.6	14	23.1	17.1	11.4	25.8	20.6	12.9	
Cc1ccccc1C(=O)Oc1ccc(O)cc1	> 100		> 100	> 100	> 100	> 100	> 100	> 100	> 100											
COc1ccc(N/N=C(\CCN(C)C)c2ccccc2)cc1	17.8	7.83	21.2		4.57	23.6	27.2	53	17.1											
CC(=O)O[C@H]1CCC2[C@@H]3CCC4=C(O)C(=O)C(C#N)C[C@]4(C)C3CC[C@@]21C (stereo not given in full)	> 100	> 100	71.1		> 100	> 100	> 100	72.1	90.9	8.33										
O=Cc1ccc(-c2ccc(-c3nc4ccccc4o3)cc2)s1	> 100	> 100	45.2	61.1	> 100	> 100	> 100		> 100	> 100	30.1	24.1	21.8	25.2	34.2	53.8	35		34.9	> 100
C=C1c2[nH]c3ccccc3c2C2C(CC)C1CCN2C (stereo not given)	> 100	77.2	> 100	> 100	> 100	> 100	> 100		> 100	> 100										
